Laboratory results taken from patent publication US11179450B2, “Long chain antigen containing interepitope sequence that promotes antigen presentation to T cells” (MIE UNIVERSITY, priority 2013, dated 2021).

Experiments:
Assay type in all cases: in vivo, BALB/c mice
[1] = system: mouse fibrosarcoma cell line CMS5a; assay: Mouse tumor growth test; details: FIG. 2; single dose of vaccine with CpG oligo DNA before subcutaneous CMS5a implantation (prophylactic condition); Student's t test
Source text: Long chain peptide antigens MEN, all containing three types of mouse CD8+ T cell epitope sequences (MA p265 (Sequence No. 27), NY p81 (Sequence No. 29), and mERK2 9m (Sequence No. 28)), were synthesized. The interepitope sequences between the respective epitopes were respectively six consecutive tyrosines (Y6) (Sequence No. 1), six consecutive glycines (G6) (Sequence No. 2), or six consecutive prolines (P6) (Sequence No. 3). Each long chain peptide antigen was complexed with CHP and administered in a single dose as a vaccine to a mouse. As a control, a short chain peptide vaccine, constituted of just the mERK2 9m peptide, was mixed with Freund's incomplete adjuvant and administered. In the process of administration, CpG oligo DNA was coadministered as an adjuvant. On the day after administration, a mouse fibrosarcoma cell line CMS5a, expressing mERK2 as a tumor antigen and presenting the CD8+ T cell epitope mERK2 9m derived from the same antigen, was implanted subcutaneously and its growth was recorded over time.
A subcloned CMS5a cell line, obtained from a CMS5 cell line isolated from fibrosarcoma induced by administering 3-methylcholanthrene to a BALB/c mouse, expresses mutant ERK2 (mERK2) as a tumor antigen and presents a CD8^+ T cell epitope derived from the mERK2. The CMS5a cell line cultured in a T75 flask (Nunc) was detached using PBS containing 0.5% trypsin and collected in RPMI1640 medium containing 10% FBS. After centrifuging (400×g, 5 minutes, 4° C.), the supernatant was removed, and the cells were rinsed twice with RPMI1640 medium, thereafter suspended in RPMI1640 medium at a concentration of 1×10^6 cells/100 μL, and implanted subcutaneously in BALB/c mice at a dose of 100 μL/individual. The CHP/long chain peptide complexes and the adjuvant were administered 7 days before tumor implantation (prophylactic condition). After tumor implantation, the length and breadth of the tumor were measured and the product thereof was recorded as tumor size. The data in the tumor growth test were compared by Student's t test using Microsoft® Excel® (Microsoft Corporation).

[2] = system: CD8+ T cells specific to MA p265, NY p81 and mERK2 9m; assay: Specific CD8+ T cell induction by CHP/long chain peptide vaccines in mice, intracellular cytokine staining of spleen cells; details: for induction of specific CD8+ T cells corresponding to all three types of epitopes: FIG. 1, MEN antigens complexed with CHP, subcutaneous, CpG oligo DNA adjuvant, spleen cells one week after final administration
Source text: Long chain peptide antigens MEN, all containing three types of mouse CD8+ T cell epitope sequences (MA p265 (Sequence No. 27), NY p81 (Sequence No. 29), and mERK2 9m (Sequence No. 28)), were synthesized. The interepitope sequences between the respective epitopes were respectively six consecutive tyrosines (Y6) (Sequence No. 1), six consecutive glycines (G6) (Sequence No. 2), six consecutive prolines (P6) (Sequence No. 3), or six consecutive threonines (T6) (Sequence No. 4). Each long chain peptide antigen was complexed with cholesterol-modified pullulan (CHP), which is a type of delivery system, and administered as a vaccine to a mouse. In the process of administration, CpG oligo DNA was coadministered as an adjuvant. Spleen cells were collected one week after the final administration and the frequencies of CD8+ T cells specific to the respective epitope sequences were measured by an intracellular cytokine staining method.
Long chain peptide antigens NME, all containing three types of mouse CD8+ T cell epitope sequences (MA p265 (Sequence No. 27), NY p81 (Sequence No. 29), and mERK2 9m (Sequence No. 28)), were synthesized. The antigens differ from the MEN sequences shown in FIG. 1 in the order of the three types of epitopes. The interepitope sequences between the respective epitopes were respectively six consecutive tyrosines (Y6) (Sequence No. 5), six consecutive glycines (G6) (Sequence No. 6), or six consecutive prolines (P6) (Sequence No. 7). Vaccines containing the respective long chain peptide antigens were administered to mice in the same manner as in FIG. 1 and the frequencies of CD8+ T cells specific to the respective epitope sequences were measured by the intracellular cytokine staining method.
(§1) Long chain peptide antigens MEN, ENM, and NME, all containing three types of mouse CD8+ T cell epitope sequences (MA p265 (Sequence No. 27), NY p81 (Sequence No. 29), and mERK2 9m (Sequence No. 28)), were synthesized. MEN, ENM, and MEN differ in the order of the three types of epitopes. The interepitope sequences between the respective epitopes were each six consecutive tyrosines (Y6) (Sequence Nos. 1, 5 and 8). Vaccines containing the respective long chain peptide antigens were administered to mice in the same manner as in FIG. 1 and the frequencies of CD8+ T cells specific to the respective epitope sequences were measured by the intracellular cytokine staining method.
Each long chain peptide was dissolved in dimethyl sulfoxide (DMSO) at a concentration of 10 mg/mL. CHP was dissolved in 6 M urea-containing phosphate buffered saline (PBS) at a concentration of 10 mg/mL 1 mL (10 mg) of the long chain peptide solution and 20 mL (200 mg) of the CHP solution were mixed and left to stand at room temperature overnight in a dark place. The liquid mixture was transferred into a dialysis membrane (molecular weight cutoff: 3,500; Thermo Fisher Scientific, Inc.) and dialyzed for 2 hours to overnight at 4° C. against 0.6 M urea-containing PBS of a volume ratio of not less than 100 times as the dialysis outer solution. Dialysis was then performed for 2 hours to overnight at 4° C. against 0.06 M urea-containing PBS of a volume ratio of not less than 100 times as the dialysis outer solution. Dialysis was performed again for 2 hours to overnight at 4° C. against PBS of a volume ratio of not less than 100 times as the dialysis outer solution. The dialyzed inner solution was collected, filtered through a filtration sterilization filter of 0.45 μm or 0.22 μm pore size, and thereafter the UV absorption at 280 nm was measured to determine the final concentration of the long chain peptide from its molecular extinction coefficient.
Each CHP/long chain peptide complex as the vaccine and the CpG oligo DNA as the adjuvant were administered at the same time to a mouse. Administration was performed by subcutaneous injection on the back of the mouse. […]

[3] = system: F4/80+ cells (macrophages); assay: Uptake of FAM-labeled long chain peptide antigens in individual animals, regional lymph node macrophages; details: FIG. 9, complexed with CHP, subcutaneous, 16 hours after administration
Protocol: The same FAM-labeled long chain peptide antigens as those in FIG. 8 were complexed with CHP and administered subcutaneously to mice. After 16 hours, cells were collected from a regional lymph node of the administration site, and the fluorescence uptakes into dendritic cells and mouse macrophages were measured by flow cytometry with the P4 fraction in the figure being deemed to correspond to the dendritic cells and the P5 fraction in the figure being deemed to correspond to the macrophages.
A test of uptake of long chain peptide antigens by antigen-presenting cells in individual animals was performed as follows. Each long chain peptide was fluorescence-labeled, complexed with a CHP nanogel, administered subcutaneously to BALB/c mice. 16 hours after administration, cells were collected from lymph nodes and after staining with the anti-CD11c antibody and the anti-F4/80 antibody, the uptake of the fluorescence-labeled long chain peptide antigens by CD11c^+ cells (dendritic cells) and F4/80^+ cells (macrophages) was analyzed by flow cytometry.

[4] = system: mERK2 9m specific CD8+ T cells; assay: Specific CD8+ T cell induction in mice, intracellular cytokine staining (mERK2 9m epitope); details: FIG. 6; comparing one to six tyrosines
Protocol: as §1, with “MEN,” for “MEN, ENM, and NME,”, “synthesized.” for “synthesized. MEN, ENM, and MEN differ in the order of the three types of epitopes.”, “one to” for “each”, “tyrosines” for “tyrosines (Y6)”, “1” for “1, 5”, “9-12).” for “8).”
as §1, with “MEN,” for “MEN, ENM, and NME,”, “synthesized.” for “synthesized. MEN, ENM, and MEN differ in the order of the three types of epitopes.”, “five to ten” for “each six”, “tyrosines” for “tyrosines (Y6)”, “1” for “1, 5”, “13-15).” for “8).”
Each CHP/long chain peptide complex as the vaccine and the CpG oligo DNA as the adjuvant were administered at the same time to a mouse. Administration was performed by subcutaneous injection on the back of the mouse. As the dose, the CHP/long chain peptide complex was administered at 0.05 to 0.1 mg equivalent of long chain peptide per administration. The CpG oligo DNA was administered at 0.05 mg per administration. One week after the final administration, spleen cells were separated by the following procedure from each vaccine-administered mouse. The spleen was isolated from the mouse and removed of blood by rinsing with RPMI1640 medium. After the spleen was triturated using a glass slide, the released cells were collected in RPMI1640 medium. After centrifuging (400×g, 5 minutes, 4° C.), the supernatant was removed and the cells were treated for 1 minute by adding 2 mL of ACK solution. […]

Sequence | growth of the tumor [1] | induction of specific CD8+ T cells corresponding to all three types of epitopes [2] | fluorescence uptake into macrophages of the regional lymph node [3] | induction of specific CD8+ T cells, mERK2 9m (second epitope) [4] | number of tyrosines of the interepitope sequence, judged in view of the results for the three types of epitopes ([2]; FIG. 6, comparing one to six tyrosines)
QYIHSANVL [mERK2 9m, reference compound] | significant suppression of tumor growth was not observed |  |  |  | 
SNPARYEFLGGGGGGQYIHSANVLGGGGGGRGPESRLL (Long chain peptide antigen, containing three types of mouse CD8+ T cell epitope sequences (MA p265, NY p81, and mERK2 9m)) [MEN(G6)] | significant suppression of tumor growth was not observed | clearly weak | hardly observed |  | 
SNPARYEFLPPPPPPQYIHSANVLPPPPPPRGPESRLL (Long chain peptide antigen, containing three types of mouse CD8+ T cell epitope sequences (MA p265, NY p81, and mERK2 9m)) [MEN(P6)] | significant suppression of tumor growth was not observed | clearly weak | hardly observed |  | 
SNPARYEFLYYYYQYIHSANVLYYYYRGPESRLL (Long chain peptide antigen, containing three types of mouse CD8+ T cell epitope sequences (MA p265, NY p81, and mERK2 9m)) [MEN(Y4)] |  |  |  | highest | satisfactory
